In US20160115540A1, “PRODRUGS AND DRUGS” (Biogen MA Inc., priority 2013, published 2016):
Where a name gives a salt, the structure may show the parent alone.

System: kidney
Assay: Transcriptional profiling on Affymetrix GeneChips, single dose, naïve mice: kidney
Assay type: in vivo, C57BL/6 mice
Details: for FC: 100DMF-vs-Veh, fold change of the probe set/gene named in the row (Affymetrix, naïve single dose); for Number of differentially expressed genes identified: Kidney: Naïve, Single Dose
Description: Treated mice were sacrificed at 2, 7, or 12 hours. Tissues (liver, spleen, kidney, jejunum, cortex, hippocampus, striatum and whole blood) were collected and analyzed by transcriptional profiling on mouse Affymetrix GeneChips.
Tissues (liver, spleen, kidney, jejunum, cortex, hippocampus, striatum and whole blood) were collected and analyzed by transcriptional profiling on mouse Affymetrix GeneChips.
Animals were exposed to CO2 and whole blood collected via cardiac puncture. Two 100 μl aliquots of whole blood were collected in 1.5 mL microcentrifuge tubes and snap frozen in liquid nitrogen. Peripheral (liver, spleen, kidney and jejunum) and CNS brain (cerebellum, hippocampus, striatum and cortex) tissues were harvested and snap frozen in liquid nitrogen, with special care taken to collect tissues of similar size and from the same location. All samples were stored at −80° C. until RNA extraction was conducted.
For RNA preparation, frozen tissues were placed in 2 mL RNAse-free 96-well blocks with 1.5 mL QIAzol Lysis Reagent (QIAgen) and a 3.2 mm stainless steel bead (BioSpec Products, Bartlesville, Okla.). Tissues were disrupted for four cycles of 45 seconds in a Mini-Beadbeater (Biospec Products). RNA was extracted in chloroform and the aqueous phase was mixed with an equal volume of 70% ethanol. Extracted RNA was applied to RNeasy 96 plates and purified by the spin method according to the manufacturer's protocol (RNeasy 96 Universal Tissue Protocol, QIAgen, Hilden Germany).
Automated sample amplifications and biotin labelings were carried out using the NuGEN Ovation RNA Amplification system V2 (Cat #3100), Ovation WB reagent (Cat #1300) and Encore Biotin module (Cat #4200) (NuGEN Technologies, Inc, San Carlos, Calif.) according to manufacturer's recommendations using an Arrayplex automated liquid handler (Beckman Coulter, Indianapolis, Ind.). Two micrograms of biotin labeled sscDNA probe were hybridized to Affymetrix GeneChip Affymetrix HT_MG-430_PM plate arrays with modified conditions as described in Allaire et al. Washing and staining of the hybridized arrays were completed as described in the GeneChip Expression analysis technical manual for HT plate arrays using the Genechip® Array Station (Affymetrix, Santa Clara, Calif.) with modifications as described in Allaire et al. The processed GeneChip® plate arrays were scanned using GeneTitan scanner (Affymetrix, Santa Clara, Calif.).
Affymetrix scans were subject to quality control (QC) measures. These tests included a visual inspection of the distribution of raw signal intensities and an assessment of RNA degradation, relative log expression (RLE), and normalized unsealed standard error (NUSE). All sample scans that passed these QC metrics were included in the analysis.
All CEL files were subjected to GC-content-based Robust Multi-array Average (GCRMA) normalization (version 2.20.0) (Irizarry R A, et al. Nucleic Acids Res 2003; 31:e15; Li C, et al. Genome Biol 2001; 2:[…]0032). Expression levels were log (base 2) transformed.
All calculations and analyses were carried out using R (version 2.11.1) and Bioconductor computational tools (Gentleman R. Springer Science+Business Media 2005).

## COC(=O)/C=C/C(=O)OC [DMF, dimethyl fumarate]
100 DMF-vs-Veh, 2 h
  FC Tmem88b 1436974_PM_at: −2.24
  FC Tnfaip3 1433699_PM_at: −1.83
  FC Tnfsf10 1439680_PM_at: −1.52
  FC Trim7 1439352_PM_at: −1.54
  FC Txnrd1 1421529_PM_a_at: 1.53
  FC Txnrd1 (1424487_PM_x_at): 1.99
  FC Ubiad1 1424213_PM_at: −1.61
  FC Ubxn7 1435912_PM_at: 1.51
  FC Vps37b 1424380_PM_at: 1.56
  FC Zbtb2 1434901_PM_at: 2.52
  FC Zfp30 1449813_PM_at: −1.55
  FC Zfp39 1441198_PM_at: −1.64
  FC Zfp93 1418955_PM_at: −1.74
  FC Zfp189 1425287_PM_at: 1.51
  FC Zfp295 1425305_PM_at: 2.68
  FC Zfp295 1441973_PM_at: 2.08
  FC Zfp759 1452623_PM_at: −1.65
  FC Zswim6 1434967_PM_at: 1.63
7 h
  FC: −1.82
12 h
  FC: 1.82
KIDNEY, 100 DMF-vs-Veh, 2 h
  FC Adm (1416077_PM_at): 1.56
  FC Bhlhe40 (1418025_PM_at): 1.59
  FC Cyr61 (1416039_PM_x_at): 2.43
  FC Dbf4 (1418334_PM_at): 2.08
  FC Ddit3 (1417516_PM_at): 3.97
  FC Dnaja1 (1416288_PM_at): 1.69
  FC Dnaja4 (1418591_PM_at): 2.05
  FC Dnaja4 (1418592_PM_at): 1.87
  FC Dnajb1 (1416755_PM_at): 3.03
  FC Dnajb1 (1416756_PM_at): 4.36
  FC Dusp6 (1415834_PM_at): 1.52
  FC Dusp16 (1418401_PM_a_at): 1.50
  FC Egr1 (1417065_PM_at): 4.60
  FC Gclm 1418627_PM_at: 1.51
  FC Hbegf (1418349_PM_at): 2.03
  FC Hbegf (1418350_PM_at): 2.21
  FC Ier2 (1416442_PM_at): 1.75
  FC Ifrd1 (1416067_PM_at): 1.52
  FC Igfbp1 (1418918_PM_at): −2.89
  FC Nab2 (1417930_PM_at): 2.74
  FC Nasp (1416042_PM_s_at): 1.62
  FC Nfil3 (1418932_PM_at): 2.29
  FC Pmaip1 (1418203_PM_at): 1.68
  FC Ppp2r3c (1417479_PM_at): 1.59
  FC Rcan1 (1416600_PM_a_at): 1.51
  FC Sertad1 (1417406_PM_at): 2.06
  FC Sirt1 (1418640_PM_at): 1.68
  FC Slc22a4 (1417639_PM_at): −1.51
  FC Tnfrsf12a 1418571_PM_at: 2.37
  FC Tnfrsf12a 1418572_PM_x_at: 2.33
  FC Tnnc1 (1418370_PM_at): 1.89
  FC Txnip (1415997_PM_at): −1.73
  FC Zfand2a (1415940_PM_at): 1.55
  FC Zfand5 (1416084_PM_at): 1.63
  FC Zfand5 (1416085_PM_s_at): 1.68
Kidney
  Number of genes, DMF Only / MMF Only: 61
Kidney, 2 hr
  Asns (1451095_PM_at) differential expression: 3.03
  Cbr3 (1427912_PM_at) differential expression: 3.04
  Gdf15 (1418949_PM_at) differential expression: 5.39
  Mthfd2 (1419253_PM_at) differential expression: 2.06
100 mpk DMF-vs-100 mpk MMF, 2 h after last dosing
  Number of differentially expressed genes identified: Kidney: 1
100 mpk DMF-vs-100 mpk MMF, 7 h after last dosing
  Number of differentially expressed genes identified: Kidney: 1
100 mpk DMF-vs-100 mpk MMF, 12 h after last dosing
  Number of differentially expressed genes identified: Kidney: 2
100 mpk, vs Vehicle, 2 h after last dosing
  Number of differentially expressed genes identified: Kidney: 331
100 mpk, vs Vehicle, 7 h after last dosing
  Number of differentially expressed genes identified: Kidney: 93
100 mpk, vs Vehicle, 12 h after last dosing
  Number of differentially expressed genes identified: Kidney: 100
kidney, 7 hr
  Asns (1451095_PM_at) differential expression: 1.92
  Cbr3 (1427912_PM_at) differential expression: 5.88
  Gdf15 (1418949_PM_at) differential expression: 1.75
  Mthfd2 (1419253_PM_at) differential expression: 1.65
kidney, 12 hr
  Asns (1451095_PM_at) differential expression: 2.65
  Cbr3 (1427912_PM_at) differential expression: 5.67
  Gdf15 (1418949_PM_at) differential expression: 1.77
  Mthfd2 (1419253_PM_at) differential expression: 1.60
kidney, 100DMF-vs-100MMF, 2 h
  FC 1439640_PM_at (no gene symbol): 1.54
kidney, 100DMF-vs-100MMF, 7 h
  FC Nr1d1 (1426464_PM_at): 1.56
kidney, 100DMF-vs-100MMF, 12 h
  FC 1441333_PM_at (no gene symbol): 1.91
  FC C76628 (1420187_PM_at): 1.59
